Measurements taken from the NIST ThermoML archive (doi:10.1016/j.fluid.2010.08.022).
± gives the expanded uncertainty stated by the source.

Settings: 101.33 kPa, Liquid crystal of unknown type; for speed of sound: Sing-around technique in a fixed-path interferometer; for mass density: Vibrating tube method

CCCCCCCC/C=C\CCCCCCCC(=O)[O-].OCC[NH2+]CCO [bis(2-hydroxyethyl)ammonium oleate]
Settings	mass density [kg/m3]	speed of sound [m/s]
310.91 K	956.801 ± 1.7	1479.3 ± 3.7
311.16 K	956.637 ± 1.7	1478.5 ± 3.7
311.41 K	956.474 ± 1.7	1477.7 ± 3.7
311.66 K	956.311 ± 1.7	1476.9 ± 3.7
311.91 K	956.146 ± 1.7	1476.1 ± 3.7
312.16 K	955.984 ± 1.7	1475.3 ± 3.7
312.41 K	955.821 ± 1.7	1474.5 ± 3.7
312.66 K	955.658 ± 1.7	1473.7 ± 3.7
312.91 K	955.495 ± 1.7	1472.9 ± 3.7
313.16 K	955.331 ± 1.7	1472.1 ± 3.7
313.4 K	955.169 ± 1.7	1471.3 ± 3.7
313.66 K	955.006 ± 1.7	1470.5 ± 3.7
313.91 K	954.842 ± 1.7	1469.7 ± 3.7
314.16 K	954.679 ± 1.7	1468.9 ± 3.7
314.41 K	954.514 ± 1.7	1468.2 ± 3.7
314.66 K	954.352 ± 1.7	1467.4 ± 3.7
314.91 K	954.186 ± 1.7	1466.6 ± 3.7
315.16 K	954.024 ± 1.7	1465.8 ± 3.7
315.41 K	953.862 ± 1.7	1465 ± 3.7
315.65 K	953.699 ± 1.7	1464.2 ± 3.7
315.91 K	953.533 ± 1.7	1463.4 ± 3.7
316.16 K	953.369 ± 1.7	1462.7 ± 3.7
316.41 K	953.207 ± 1.7	1461.9 ± 3.7
316.66 K	953.043 ± 1.7	1461.1 ± 3.7
316.91 K	952.88 ± 1.7	1460.3 ± 3.7
317.16 K	952.716 ± 1.7	1459.5 ± 3.7
317.41 K	952.551 ± 1.7	1458.8 ± 3.7
317.66 K	952.388 ± 1.7	1458 ± 3.7
317.91 K	952.225 ± 1.7	1457.2 ± 3.7
318.16 K	952.061 ± 1.7	1456.4 ± 3.7
318.41 K	951.897 ± 1.7	1455.6 ± 3.7
318.66 K	951.733 ± 1.7	1454.9 ± 3.7
318.91 K	951.57 ± 1.7	1454.1 ± 3.7
319.16 K	951.406 ± 1.7	1453.3 ± 3.7
319.41 K	951.243 ± 1.7	1452.5 ± 3.7
319.66 K	951.078 ± 1.7	1451.7 ± 3.7
319.91 K	950.913 ± 1.7	1451 ± 3.7
320.16 K	950.75 ± 1.7	1450.2 ± 3.7
320.41 K	950.587 ± 1.7	1449.4 ± 3.7
320.66 K	950.422 ± 1.7	1448.6 ± 3.7
320.91 K	950.258 ± 1.7	1447.8 ± 3.7
321.16 K	950.094 ± 1.7	1447.1 ± 3.7
321.41 K	949.931 ± 1.7	1446.3 ± 3.7
321.66 K	949.766 ± 1.7	1445.5 ± 3.7
321.91 K	949.603 ± 1.7	1444.7 ± 3.7
322.16 K	949.437 ± 1.7	1444 ± 3.7
322.41 K	949.275 ± 1.7	1443.2 ± 3.7
322.65 K	949.109 ± 1.7	1442.4 ± 3.7
322.91 K	948.946 ± 1.7	1441.6 ± 3.7
323.16 K	948.781 ± 1.7	1440.8 ± 3.7
323.41 K	948.617 ± 1.7	1440.1 ± 3.7
323.66 K	948.452 ± 1.7	1439.3 ± 3.7
323.91 K	948.289 ± 1.7	1438.5 ± 3.7
324.16 K	948.125 ± 1.7	1437.8 ± 3.7
324.41 K	947.96 ± 1.7	1437 ± 3.7
324.66 K	947.796 ± 1.7	1436.2 ± 3.7
324.9 K	947.631 ± 1.7	1435.4 ± 3.7
325.16 K	947.466 ± 1.7	1434.7 ± 3.7
325.41 K	947.302 ± 1.7	1433.9 ± 3.7
325.66 K	947.136 ± 1.7	1433.2 ± 3.7
325.91 K	946.972 ± 1.7	1432.4 ± 3.7
326.16 K	946.806 ± 1.7	1431.6 ± 3.7
326.41 K	946.644 ± 1.7	1430.8 ± 3.7
326.66 K	946.479 ± 1.7	1430.1 ± 3.7
326.91 K	946.315 ± 1.7	1429.3 ± 3.7
327.16 K	–	1428.5 ± 3.7
